According to paper PMC11844072, “Novel 5,6-dichlorobenzimidazole derivatives as dual BRAFWT and BRAFV600E inhibitors: design, synthesis, anti-cancer activity and molecular dynamics simulations” (BMC Chemistry, 2025):

Columns and labels:
HT29 cell line = assay: Apoptosis assay (Annexin V-FITC/PI); assay type: cell-based, human
Method: As stated in the Additional file A, the populations of apoptotic and necrotic cells of HT29 cell line were detected after treatment with 10h employing Annexin V-FITC apoptosis detection kit (For further details see Additional file A). […]
HT29: Colon Cancer was obtained from Nawah Scientific Inc., (Mokatam, Cairo, Egypt). […]
Apoptosis and necrosis cell populations are determined using Annexin V-FITC apoptosis detection kit (Abcam Inc., Cambridge Science Park, Cambridge, UK) coupled with 2 fluorescent channels flowcytometry. After treatment with test compounds for 48h, cells (10^5 cells) are collected by trypsinization and washed twice with ice-cold PBS (pH 7.4). Then, cells are incubated in dark with 0.5 ml of Annexin V-FITC/PI solution for 30 min in dark at room temperature according to manufacturer protocol. After staining, cells are injected via ACEA Novocyte™ flowcytometer (ACEA Biosciences Inc., San Diego, CA, USA) and analysed for FITC and PI fluorescent signals using FL1 and FL2 signal detector, respectively (λex/em 488/530 nm for FITC and λex/em 535/617 nm for PI). For each sample, 12,000 events are acquired and positive FITC and/or PI cells are quantified by quadrant analysis and calculated using ACEA NovoExpress™ software (ACEA Biosciences Inc., San Diego, CA,

HOP-92 = assay: NCI 5-dose assay; assay type: cell-based; conditions: Homo sapiens; HOP-92, Non-small cell lung cancer
Summary of the method: (§1)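 Single-dose screen at 10 µM across the NCI-60 panel, then five concentrations (10-fold or ½ log dilutions) for selected compounds. Cells in RPMI 1640, 5% FBS, 2 mM L-glutamine, preincubated 24 h, then drug exposure 48 h at 37 °C. TCA fixation, SRB stain read at 515 nm; percent growth calculated against time-zero and untreated controls.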

OVCAR-3 = assay: NCI 5-dose assay; assay type: cell-based; conditions: Homo sapiens; OVCAR-3, Ovarian cancer
Summary of the method: as §1

HCT-116 = assay: NCI 5-dose assay; assay type: cell-based; conditions: Homo sapiens; HCT-116, Colon cancer
Summary of the method: as §1

OVCAR-5 = assay: NCI 5-dose assay; assay type: cell-based; conditions: Homo sapiens; OVCAR-5, Ovarian cancer
Summary of the method: as §1

NCI/ADR-RES = assay: NCI 5-dose assay; assay type: cell-based; conditions: Homo sapiens, Ovarian cancer
Summary of the method: as §1

SNB-19 = assay: NCI 5-dose assay; assay type: cell-based; conditions: Homo sapiens; SNB-19, CNS cancer
Summary of the method: as §1

A549/ATCC = assay: NCI 5-dose assay; assay type: cell-based; conditions: Homo sapiens, Non-small cell lung cancer
Summary of the method: as §1

HL-60(TB) = assay: NCI 5-dose assay; assay type: cell-based; conditions: Homo sapiens, Leukemia
Summary of the method: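 Suspension cells such as leukaemia lines are fixed with 80% TCA added to settled cells, to 16% final, while other lines are fixed at 10% TCA. Both are then SRB-stained after 48 h of drug exposure at 37 °C.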

FGFR-1 = FGFR-1 (Homo sapiens, UniProt P11362); assay: FGFR-1 kinase assay (Kinase-Glo Max luminescence)
Method: The inhibitory activity against different kinases was determined using kinase kits (BRAF WT
Glo Max luminescence kinase assay kit (Promega).
The assay was carried out according to the protocol provided by the manufacturer. A stock solution of the synthesized derivatives in 100% DMSO was prepared. Subsequently, the compounds were diluted to 10% DMSO.
A master mixture was prepared according to the number of wells. For BRAF assay each well include 6 μl of 5x Kinase Buffer 1 + 1 μl of ATP (500 μM) + 10 μl of 5X Raf substrate + 8 μl of distilled water. 1x Kinase buffer 1 was prepared by mixing 600 μl of 5x Kinase Buffer 1 with 2400 μl water to give 3 mL. Kinases were thawed on ice and were diluted with 1x Kinase Buffer 1. […]
The plate was incubated at 30 °C for 45 min. Subsequently, 50 μl of Kinase-Glo Max luminescence reagent was added to each well and the plate was covered with aluminum foil and incubated at room temperature for 15 min. Finally, the luminescence was recorded using multimode microplate reader. […]
The luminescence data were analyzed as follows. The difference between luminescence intensities in the absence of kinase (Lu t) and in the presence of kinase (Lu c) was defined as 100 %
calculated as: % activity = {(Lu t - Lu)/(Lut - Luc)} ×100%. The concentration of the test compounds required to reduce the kinase activity by 50% was determined from dose-response curves and

[1] = HT29, at its GI50 concentration, 48h

FGFR-1, sequence (P11362 22-822): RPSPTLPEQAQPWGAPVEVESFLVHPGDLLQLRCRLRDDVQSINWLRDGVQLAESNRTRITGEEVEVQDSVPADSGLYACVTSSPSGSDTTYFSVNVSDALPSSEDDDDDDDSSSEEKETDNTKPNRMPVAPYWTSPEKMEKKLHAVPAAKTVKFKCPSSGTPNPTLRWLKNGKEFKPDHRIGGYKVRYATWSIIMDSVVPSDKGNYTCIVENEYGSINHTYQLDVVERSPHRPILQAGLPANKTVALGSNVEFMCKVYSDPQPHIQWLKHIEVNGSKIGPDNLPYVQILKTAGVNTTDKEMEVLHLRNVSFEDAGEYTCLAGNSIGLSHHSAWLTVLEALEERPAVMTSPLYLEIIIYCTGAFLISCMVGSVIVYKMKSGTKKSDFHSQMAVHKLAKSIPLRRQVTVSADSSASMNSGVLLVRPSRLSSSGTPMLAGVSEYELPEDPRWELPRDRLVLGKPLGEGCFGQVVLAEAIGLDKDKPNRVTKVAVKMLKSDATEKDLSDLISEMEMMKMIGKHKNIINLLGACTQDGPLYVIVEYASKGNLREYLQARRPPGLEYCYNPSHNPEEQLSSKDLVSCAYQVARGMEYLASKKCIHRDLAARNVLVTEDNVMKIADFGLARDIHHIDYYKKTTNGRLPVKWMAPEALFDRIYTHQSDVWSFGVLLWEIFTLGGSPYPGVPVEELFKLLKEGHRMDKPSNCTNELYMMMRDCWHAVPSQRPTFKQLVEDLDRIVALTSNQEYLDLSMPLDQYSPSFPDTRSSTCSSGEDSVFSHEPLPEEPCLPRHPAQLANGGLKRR

Row | SMILES | % of cells in early apoptosis (Q2-4) (HT29 cell line; [1]) [%] | % of cells in late apoptosis (Q2-2) (HT29 cell line; [1]) [%] | % of necrotic cells (Q2-1) (HT29 cell line; [1]) [%] | % of viable cells (Q2-3) (HT29 cell line; [1]) [%] | total % of the cells in the apoptotic phases (Early and late) (HT29 cell line; [1]) [%] | apoptosis induction (HT29 cell line; HT29 colon cancer cell line) | GI50 (HOP-92) [µM] | GI50 (OVCAR-3) [µM] | GI50 (HCT-116) [µM] | GI50 (OVCAR-5) [µM] | GI50 (NCI/ADR-RES) [µM] | GI50 (SNB-19) [µM] | GI50 (A549/ATCC) [µM] | GI50 (HL-60(TB)) [µM] | IC50 (FGFR-1) [µM]
1 | COC(=O)COc1ccc(C=NNC(=O)Cn2c(-c3ccc(OC)cc3)nc3cc(Cl)c(Cl)cc32)cc1 [Compound 10h, Methyl-2-(4-((2-(2-(5,6-dichloro-2-(4-methoxyphenyl)-1H-benzo[d]imidazol-1-yl)acetyl)hydrazono)methyl)phenoxy)acetate] | 2.29 | 17.56 | 3.44 | 76.71 | 19.85 | induced apoptosis | 11.4 | 10.6 | 68 | 34.3 | 5.22 | > 82.5 | > 82.5 | > 82.5 | > 10
2 | COC(=O)COc1cc(C=NNC(=O)Cn2c(-c3ccc(OC)cc3)nc3cc(Cl)c(Cl)cc32)ccc1OC [Compound 10o, Methyl-2-(5-((2-(2-(5,6-dichloro-2-(4-methoxyphenyl)-1H-benzo[d]imidazol-1-yl)acetyl)hydrazono)methyl)-2-methoxyphenoxy)acetate] | – | – | – | – | – | – | 23.6 | > 100 | > 100 | > 100 | 81.2 | > 100 | > 100 | > 100 | –
3 | COC(=O)COc1ccc(C=NNC(=O)Cn2c(-c3ccc(OC)cc3)nc3cc(Cl)c(Cl)cc32)cc1OC [Compound 10p, Methyl-2-(4-((2-(2-(5,6-dichloro-2-(4-methoxyphenyl)-1H-benzo[d]imidazol-1-yl)acetyl)hydrazono)methyl)-2-methoxyphenoxy)acetate] | – | – | – | – | – | – | 12.5 | > 72.5 | > 72.5 | 24 | 3.05 | > 72.5 | > 72.5 | > 72.5 | –
